Results: ChEMBL document CHEMBL1127565, “Identification of two hydrophobic patches in the active-site cavity of human carbonic anhydrase II by solution-phase and solid-state studies and their use in the development of tight-binding inhibitors” (J Med Chem, 1994)
pKd: −log10 of the molar value.

Biological target: Carbonic anhydrase 2 (Homo sapiens, UniProt P00918)
Description: Dissociation constant against human Carbonic anhydrase II (HCA II)

NS(=O)(=O)c1ccc(C(=O)NCc2cccc3ccccc23)cc1
pKd: 9.22

NS(=O)(=O)c1ccc(C(=O)NCC2CCCCC2)cc1
pKd: 8.96

CCCCCCCCNC(=O)c1ccc(S(N)(=O)=O)cc1
pKd: 8.60

NS(=O)(=O)c1ccc(C(=O)NCC23CC4CC(CC(C4)C2)C3)cc1
pKd: 8.68

NS(=O)(=O)c1ccc(C(=O)N[C@@H](Cc2ccccc2)C(=O)NCC(=O)NCC(=O)O)cc1
pKd: 7.68

NS(=O)(=O)c1ccc(C(=O)NCC(=O)NCC(=O)OCc2ccccc2)cc1
pKd: 7.15

CCCCc1ccc(COC(=O)CNC(=O)CNC(=O)CNC(=O)c2ccc(S(N)(=O)=O)cc2)cc1
pKd: 7.28

NS(=O)(=O)c1ccc(C(=O)NCc2ccc([N+](=O)[O-])cc2)cc1
pKd: 8.70

NS(=O)(=O)c1ccc(C(=O)N[C@@H](Cc2ccccc2)C(=O)NCC(=O)NCC(=O)OCc2ccccc2)cc1
pKd: 8.28

NS(=O)(=O)c1ccc(C(=O)NCc2cccnc2)cc1
pKd: 8.40

NS(=O)(=O)c1ccc(C(=O)NCC(F)(F)C(F)(F)C(F)(F)C(F)(F)C(F)(F)C(F)(F)C(F)(F)F)cc1
pKd: 9.52

NS(=O)(=O)c1ccc(C(=O)NC(=O)c2ccco2)cc1
pKd: 8.25

CN(C)c1ccc(CNC(=O)c2ccc(S(N)(=O)=O)cc2)cc1
pKd: 8.85

NS(=O)(=O)c1ccc(C(=O)NCC(=O)NCC(=O)NCC(=O)NCC(=O)OCc2ccccc2)cc1
pKd: 6.68

NS(=O)(=O)c1ccc(C(=O)N[C@H](C(=O)NCC(=O)NCC(=O)OCc2ccccc2)c2ccccc2)cc1
pKd: 9.05

NS(=O)(=O)c1ccc(C(=O)NCc2ccccn2)cc1
pKd: 8.37

Cc1ccccc1CNC(=O)c1ccc(S(N)(=O)=O)cc1
pKd: 8.66

NS(=O)(=O)c1ccc(C(=O)NCSc2ccccc2)cc1
pKd: 8.77

NS(=O)(=O)c1ccc(C(=O)NCc2ccc(F)c(F)c2F)cc1
pKd: 8.64

NS(=O)(=O)c1ccc(C(=O)NCc2ccncc2)cc1
pKd: 8.85

CNC(=O)c1ccc(S(N)(=O)=O)cc1
pKd: 6.82

NS(=O)(=O)c1ccc(C(=O)NCC(=O)NCC(=O)NCC(=O)OCc2ccccc2)cc1
pKd: 7.12

NC(=O)c1ccc(S(N)(=O)=O)cc1
pKd: 6.92

NS(=O)(=O)c1ccc(C(=O)N[C@H](Cc2ccccc2)C(=O)NCC(=O)NCC(=O)OCc2ccccc2)cc1
pKd: 7.44
